Measured values from patent publication US11759496B2, “Compounds and pharmaceutical use thereof in the treatment of cancer” (priority 2016, dated 2023).
Non-standard residues stand in square brackets, D forms with d. Residues, ends and D or L forms follow the SMILES beside them. NMeR = CN[C@@H](CCCNC(=N)N)C(=O)O; Nle = CCCC[C@H](N)C(=O)O

What was measured:
[1] = target: T1, CD47 (membrane preparation from MEC-1 cells) (Homo sapiens, UniProt Q08722); test: Binding affinity by biolayer interferometry (Octet RED96) on biotinylated MEC-1 cell membrane preparation; conditions: NPD = Non Pertinent Data; for Kd (μM): Table 3, average of two or more measurements; for Kd(μM)PR: Table 4, N-methyl peptides
T1 construct: MEC-1 cell membrane preparation were biotinylated with the EZ-Link NHS-PEG4-Biotin kit; endogenous in cells; host or cells: MEC-1 cells (membrane preparation)
T1 sequence (Q08722 19-323): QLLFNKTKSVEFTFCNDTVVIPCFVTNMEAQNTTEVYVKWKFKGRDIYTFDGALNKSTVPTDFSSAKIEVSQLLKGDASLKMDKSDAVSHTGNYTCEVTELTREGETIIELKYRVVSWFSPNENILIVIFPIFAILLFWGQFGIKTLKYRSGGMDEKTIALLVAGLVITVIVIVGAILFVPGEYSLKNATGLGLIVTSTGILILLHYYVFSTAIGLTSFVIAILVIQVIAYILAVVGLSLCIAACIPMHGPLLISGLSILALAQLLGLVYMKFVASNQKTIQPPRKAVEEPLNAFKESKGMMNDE
Procedure: The binding affinities of peptides for a membrane preparation from MEC-1 cells were measured by biolayer interferometry on an Octet RED96 System (Pall FortéBio Corp., Menlo Park, Calif.).
The binding affinities of peptides for a membrane preparation from MEC-1 cells were measured by biolayer interferometry on an Octet RED96 System (Pall FortéBio Corp., Menlo Park, Calif.). This system monitors interference of light reflected from two sources (an internal reflection surface and the liquid/solid interface of a fiber optic sensor) to measure the rate of binding of molecules to the biosensor surface.
MEC-1 cell membrane preparation were biotinylated with the EZ-Link NHS-PEG4-Biotin kit from Thermo-Scientific. Biotinylated membranes were then loaded onto SuperStreptavidin (SSA) biosensors (Pall FortéBio Corp.) at empirically determined concentrations.
In order to highlight the pharmacological properties of these peptides, a systematic SAR study by the development of a binding assay allowing to the assessment of the affinity of the 4N1K analogues to CD47 was initiated. […] An Ala-scan to identify the pharmacophores of 4N1K was implemented.
The binding affinities of peptides for a MEC-1 cells membrane preparation were measured by biolayer interferometry on an Octet RED96 System (Pall FortéBio Corp., Menlo Park, Calif.). This system monitors interference of light reflected from two sources (an internal reflection surface and the liquid/solid interface of a fiber optic sensor) to measure the rate of binding of molecules to the biosensor surface. MEC-1 cells membrane preparation is biotinylated with the EZ-Link NHS-PEG4-Biotin kit from Thermo-Scientific and excess biotin is removed using desalting column from Thermo-Scientific. Biotinylated membranes are then loaded onto SuperStreptavidin (SSA) biosensors (Pall FortéBio Corp.) at empirically determined concentrations. […] Typically, the biosensors were pre-equilibrated in PBS containing either biotinylated membranes or biocytine 100 μg/mL. Biosensors are then equilibrated in assay buffer for 10 min, brought to baseline in assay buffer for 60 sec. and transferred to wells containing peptide in dose-response (association for 120 sec. and dissociation for 300 sec.). The double reference with either membrane-loaded biosensors without any peptide dose-response or biocytine-loaded biosensors with each peptide dose-response were run in parallel for background signal double subtractions. Binding kinetics were calculated using the FortéBio Data Analysis v8.2 software.

MEC-1 cells = test: MEC-1 cell death (PCD) after 2 h peptide treatment; format: cell-based; conditions: for MEC-1 Cell Death (%) 2 h, [peptides] = 200 μM: Table 3, 200 μM peptide; for Cell Death (MEC-1, 2 h): Table 4
Procedure: Then the peptides structures were tested via NMR and X-ray. The peptides were also tested for their activity on MEC-1 and their KDs and Retention times on LCMS were determined.

| Compound | MEC-1 Cell Death (%) 2 h, [peptides] = 200 μM (MEC-1 cells) [%] | Cell Death (MEC-1, 2 h) (MEC-1 cells) [%] | further results |
| --- | --- | --- | --- |
| CSCC[C@H](NC(=O)[C@@H](NC(=O)[C@@H](NC(=O)[C@H](Cc1ccc(O)cc1)NC(=O)[C@H](C)NC(=O)[C@H](CCCNC(=N)N)NC(=O)[C@H](N)CCCCN)C(C)C)C(C)C)C(=O)N[C@@H](Cc1c[nH]c2ccccc12)C(=O)N[C@@H](CCCCN)C(=O)N[C@H](CCCCN)C(=O)O [F3/A, kR(A)YVVMWKk] (H-[dK]RAYVVMWK[dK]-OH; N-terminus and C-terminus assumed) | 6 |  | Kd (μM) [1]: NPD |
| CSCC[C@H](NC(=O)[C@@H](NC(=O)[C@@H](NC(=O)[C@H](Cc1ccc(O)cc1)NC(=O)[C@H](Cc1ccccc1)NC(=O)[C@H](CCCNC(=N)N)NC(=O)[C@H](N)CCCCN)C(C)C)C(C)C)C(=O)N[C@@H](Cc1c[nH]c2ccccc12)C(=O)N[C@@H](C)C(=O)N[C@H](CCCCN)C(=O)O [K9/A, kRFYVVMW(A)k] (H-[dK]RFYVVMWA[dK]-OH) | 46 |  |  |
| CC(C)[C@H](NC(=O)[C@H](Cc1ccc(O)cc1)NC(=O)[C@H](Cc1ccccc1)NC(=O)[C@H](CCCNC(=N)N)NC(=O)[C@H](N)CCCCN)C(=O)N[C@H](C(=O)N[C@@H](C)C(=O)N[C@@H](Cc1c[nH]c2ccccc12)C(=O)N[C@@H](CCCCN)C(=O)N[C@H](CCCCN)C(=O)O)C(C)C [M7/A, kRFYVV(A)WKk] (H-[dK]RFYVVAWK[dK]-OH; N-terminus and C-terminus assumed) | 6 |  |  |
| CCCC[C@H](NC(=O)[C@@H](NC(=O)[C@@H](NC(=O)[C@H](Cc1ccc(O)cc1)NC(=O)[C@H](Cc1ccccc1)NC(=O)[C@H](CCCNC(=N)N)NC(=O)[C@H](N)CCCCN)C(C)C)C(C)C)C(=O)N[C@@H](Cc1c[nH]c2ccccc12)C(=O)N[C@@H](CCCCN)C(=O)N[C@H](CCCCN)C(=O)O [M/Nle, kRFYVV(Nle)WKk] (H-[dK]RFYVV[Nle]WK[dK]-OH) | 47 |  |  |
| CSCC[C@H](NC(=O)[C@H](C(C)C)N(C)C(=O)[C@@H](NC(=O)[C@H](Cc1ccc(O)cc1)NC(=O)[C@H](Cc1ccccc1)NC(=O)[C@H](CCCNC(=N)N)NC(=O)[C@H](N)CCCCN)C(C)C)C(=O)N[C@@H](Cc1c[nH]c2ccccc12)C(=O)N[C@@H](CCCCN)C(=O)N[C@H](CCCCN)C(=O)O [PKT7, H-(D)K R F Y V ψ(CONMe)V M W K (D)K-OH] |  | 0 | Kd(μM)PR [1]: NPD |
| CSCC[C@H](NC(=O)[C@@H](NC(=O)[C@H](C(C)C)N(C)C(=O)[C@H](Cc1ccc(O)cc1)NC(=O)[C@H](Cc1ccccc1)NC(=O)[C@H](CCCNC(=N)N)NC(=O)[C@H](N)CCCCN)C(C)C)C(=O)N[C@@H](Cc1c[nH]c2ccccc12)C(=O)N[C@@H](CCCCN)C(=O)N[C@H](CCCCN)C(=O)O [PKT8, H-(D)K R F Y ψ(CONMe)V V M W K (D)K-OH] |  | 0 | Kd(μM)PR [1]: NPD |
| CSCC[C@H](NC(=O)[C@@H](NC(=O)[C@@H](NC(=O)[C@H](Cc1ccc(O)cc1)N(C)C(=O)[C@H](Cc1ccccc1)NC(=O)[C@H](CCCNC(=N)N)NC(=O)[C@H](N)CCCCN)C(C)C)C(C)C)C(=O)N[C@@H](Cc1c[nH]c2ccccc12)C(=O)N[C@@H](CCCCN)C(=O)N[C@H](CCCCN)C(=O)O [PKT9, H-(D)K R F ψ(CONMe)Y V V M W K (D)K-OH] |  | 0 | Kd(μM)PR [1]: NPD |
| CSCC[C@H](NC(=O)[C@@H](NC(=O)[C@@H](NC(=O)[C@H](Cc1ccc(O)cc1)NC(=O)[C@H](Cc1ccccc1)N(C)C(=O)[C@H](CCCNC(=N)N)NC(=O)[C@H](N)CCCCN)C(C)C)C(C)C)C(=O)N[C@@H](Cc1c[nH]c2ccccc12)C(=O)N[C@@H](CCCCN)C(=O)N[C@H](CCCCN)C(=O)O [PKT10, H-(D)K R ψ(CONMe)F Y V V M W K (D)K-OH] |  | 0 | Kd(μM)PR [1]: NPD |
| CSCC[C@H](NC(=O)[C@@H](NC(=O)[C@@H](NC(=O)[C@H](Cc1ccc(O)cc1)NC(=O)[C@H](Cc1ccccc1)NC(=O)[C@H](CCCNC(=N)N)N(C)C(=O)[C@H](N)CCCCN)C(C)C)C(C)C)C(=O)N[C@@H](Cc1c[nH]c2ccccc12)C(=O)N[C@@H](CCCCN)C(=O)N[C@H](CCCCN)C(=O)O [PKT11, H-(D)K ψ(CONMe)R F Y V V M W K (D)K-OH] |  | 60 |  |
| CSCC[C@H](NC(=O)[C@@H](NC(=O)[C@@H](NC(=O)[C@H](Cc1ccc(O)cc1)NC(=O)[C@H](Cc1ccccc1)NC(=O)[C@H](CCCNC(=N)N)NC(=O)[C@H](N)CCCCN)C(C)C)C(C)C)C(=O)N(C)[C@@H](Cc1c[nH]c2ccccc12)C(=O)N[C@@H](CCCCN)C(=O)N[C@H](CCCCN)C(=O)O [PKT12, H-(D)K R F Y V V M ψ(CONMe)W K (D)K-OH] |  | 0 | Kd(μM)PR [1]: NPD |
| CSCC[C@H](NC(=O)[C@@H](NC(=O)[C@@H](NC(=O)[C@H](Cc1ccc(O)cc1)NC(=O)[C@H](Cc1ccccc1)NC(=O)[C@H](CCCNC(=N)N)N(C)C(=O)[C@H](N)CCCCN)C(C)C)C(C)C)C(=O)N[C@@H](Cc1c[nH]c2ccccc12)C(=O)N(C)[C@@H](CCCCN)C(=O)N[C@H](CCCCN)C(=O)O [PKT15, H-(D)K ψ(CONMe)R F Y V V M W ψ(CONMe)K (D)K-OH] |  | 10 |  |
| CC(C)C[C@H](NC(=O)[C@@H](NC(=O)[C@@H](NC(=O)[C@H](Cc1ccc(O)cc1)NC(=O)[C@H](Cc1ccccc1)NC(=O)[C@H](CCCNC(=N)N)N(C)C(=O)[C@H](N)CCCCN)C(C)C)C(C)C)C(=O)N[C@@H](Cc1c[nH]c2ccccc12)C(=O)N[C@@H](CCCCN)C(=O)N[C@H](CCCCN)C(=O)O [PKT17, H-(D)K ψ(CONMe)R F Y V V L W K (D)K-OH] (H-[dK][NMeR]FYVVLWK[dK]-OH) |  | 30 |  |
| CSCC[C@H](NC(=O)[C@@H](NC(=O)[C@@H](NC(=O)[C@H](Cc1ccc(O)cc1)NC(=O)[C@H](Cc1ccccc1)NC(=O)[C@H](C)NC(=O)[C@H](N)CCCCN)C(C)C)C(C)C)C(=O)N[C@@H](Cc1c[nH]c2ccccc12)C(=O)N[C@@H](CCCCN)C(=O)N[C@H](CCCCN)C(=O)O [R2/A, k(A)FYVVMWKk] (H-[dK]AFYVVMWK[dK]-OH) | 44 |  |  |
| CSCC[C@H](NC(=O)[C@@H](NC(=O)[C@H](C)NC(=O)[C@H](Cc1ccc(O)cc1)NC(=O)[C@H](Cc1ccccc1)NC(=O)[C@H](CCCNC(=N)N)NC(=O)[C@H](N)CCCCN)C(C)C)C(=O)N[C@@H](Cc1c[nH]c2ccccc12)C(=O)N[C@@H](CCCCN)C(=O)N[C@H](CCCCN)C(=O)O [V5/A, kRFY(A)VMWKk] (H-[dK]RFYAVMWK[dK]-OH; N-terminus and C-terminus assumed) | 12 |  | Kd (μM) [1]: NPD |
| CSCC[C@H](NC(=O)[C@H](C)NC(=O)[C@@H](NC(=O)[C@H](Cc1ccc(O)cc1)NC(=O)[C@H](Cc1ccccc1)NC(=O)[C@H](CCCNC(=N)N)NC(=O)[C@H](N)CCCCN)C(C)C)C(=O)N[C@@H](Cc1c[nH]c2ccccc12)C(=O)N[C@@H](CCCCN)C(=O)N[C@H](CCCCN)C(=O)O [V6/A, kRFYV(A)MWKk] (H-[dK]RFYVAMWK[dK]-OH; N-terminus and C-terminus assumed) | 30 |  | Kd (μM) [1]: NPD |
| CSCC[C@H](NC(=O)[C@@H](NC(=O)[C@@H](NC(=O)[C@H](Cc1ccc(O)cc1)NC(=O)[C@H](Cc1ccccc1)NC(=O)[C@H](CCCNC(=N)N)NC(=O)[C@H](N)CCCCN)C(C)C)C(C)C)C(=O)N[C@@H](C)C(=O)N[C@@H](CCCCN)C(=O)N[C@H](CCCCN)C(=O)O [W8/A, kRFYVVM(A)Kk] (H-[dK]RFYVVMAK[dK]-OH; N-terminus and C-terminus assumed) | 35 |  | Kd (μM) [1]: NPD |
| CSCC[C@H](NC(=O)[C@@H](NC(=O)[C@@H](NC(=O)[C@H](Cc1ccc(O)cc1)NC(=O)[C@H](Cc1ccccc1)NC(=O)[C@H](CCCNC(=N)N)NC(=O)[C@H](CCCCN)NC(C)=O)C(C)C)C(C)C)C(=O)N[C@@H](Cc1c[nH]c2ccccc12)C(=O)N[C@@H](CCCCN)C(=O)N[C@@H](CCCCN)C(N)=O [compound 2] (Ac-KRFYVVMWKK-NH2) |  |  | MEC-1 Cell Death (%) 2 h (MEC-1 cells; Table 2, NPD = Non Pertinent Data): 30% |
| H-(D)K ψ(CONMe)R F Y VV I W K (D)K-OH [PKT18] |  | 45 |  |
